Source: the supplement of paper PMC13380429
± gives the standard deviation of the averaged measurements.

Columns and labels:
Conditions in all cases: 72 h
Vero E6 [1] = assay: relative viability EC50 (midpoint between 100% and the lowest measured viability); higher = less toxic
Caco-2 [2] = assay: as above
U2OS [3] = assay: as above
HepG2 [4] = assay: as above
Calu-3 [5] = assay: as above
Vero E6 [6] = assay: drug sensitivity score (DSS) for viability; higher = more toxic; extreme values may be limits of the assay
Caco-2 [7] = assay: as above
U2OS [8] = assay: as above
HepG2 [9] = assay: as above
Calu-3 [10] = assay: as above
Vero E6 [11] = assay: cell viability relative to DMSO; higher = less toxic
Caco-2 [12] = assay: as above
U2OS [13] = assay: as above
HepG2 [14] = assay: as above
Calu-3 [15] = assay: as above

Row | SMILES | relative viability EC50 (Vero E6 [1]) | relative viability EC50 (Caco-2 [2]) | relative viability EC50 (U2OS [3]) | relative viability EC50 (HepG2 [4]) | relative viability EC50 (Calu-3 [5]) | drug sensitivity score (Vero E6 [6]) | drug sensitivity score (Caco-2 [7]) | drug sensitivity score (U2OS [8]) | drug sensitivity score (HepG2 [9]) | drug sensitivity score (Calu-3 [10]) | cell viability (Vero E6 [11]; 1 nM) | cell viability (Vero E6 [11]; 10 nM) | cell viability (Vero E6 [11]; 100 nM) | cell viability (Vero E6 [11]; 1000 nM) | cell viability (Vero E6 [11]; 10000 nM) | cell viability (Caco-2 [12]; 1 nM) | cell viability (Caco-2 [12]; 10 nM) | cell viability (Caco-2 [12]; 100 nM) | cell viability (Caco-2 [12]; 1000 nM) | cell viability (Caco-2 [12]; 10000 nM) | cell viability (U2OS [13]; 1 nM) | cell viability (U2OS [13]; 10 nM) | cell viability (U2OS [13]; 100 nM) | cell viability (U2OS [13]; 1000 nM) | cell viability (U2OS [13]; 10000 nM) | cell viability (HepG2 [14]; 1 nM) | cell viability (HepG2 [14]; 10 nM) | cell viability (HepG2 [14]; 100 nM) | cell viability (HepG2 [14]; 1000 nM) | cell viability (HepG2 [14]; 10000 nM) | cell viability (Calu-3 [15]; 1 nM) | cell viability (Calu-3 [15]; 10 nM) | cell viability (Calu-3 [15]; 100 nM) | cell viability (Calu-3 [15]; 1000 nM) | cell viability (Calu-3 [15]; 10000 nM)
1 | CC(C)c1cc(-c2ccc(F)c3ccccc23)nc(N)n1 | > 10 µM | > 10 µM | > 10 µM | > 10 µM | > 10 µM | 0 | 0 | 0 | 0 | 0 | 94.1% | 98.6% | 98.8% | 102% | 107% | 90.7% | 101% | 102% | 92.7% | 101% | 93.1% | 96.6% | 98.7% | 97.9% | 100% | 103% | 119% | 99.2% | 99.3% | 113% | 80.3% | 103% | 99.7% | 107% | 108%
2 | CC1(C)OC[C@H](NC(=O)Nc2ccc(Br)cc2Br)[C@H](c2ccccc2)O1 | > 10 µM | > 10 µM | > 10 µM | > 10 µM | > 10 µM | 0 | 0.1 | 0 | 0 | 0 | 102% | 101% | 101% | 93.9% | 95.7% | 94.5% | 98.8% | 95.3% | 103% | 85.8% | 93.3% | 98% | 96.6% | 98.5% | 89.6% | 95.4% | 89.8% | 93.6% | 91.1% | 95.5% | 99.1% | 89.6% | 111% | 103% | 92.8%
3 | CNC(=O)c1ccc2c(c1)CCO[C@H]2CCN1CCN(c2ccc(C(N)=O)cc2)CC1 | > 10 µM | > 10 µM | > 10 µM | > 10 µM | > 10 µM | 0 | 0 | 0 | 0 | 0 | 105% | 102% | 104% | 99.1% | 107% | 94.9% | 105% | 91.9% | 102% | 97.1% | 99.5% | 106% | 100% | 103% | 101% | 103% | 104% | 95.2% | 98.9% | 99.6% | 99.7% | 81.1% | 95.2% | 107% | 100%
4 | COc1cc(Oc2ccnc3cc(OC)c(OC)cc23)ccc1NC(=O)NC(C)c1nccs1 (stereo not given) | > 10 µM | > 10 µM | > 10 µM | > 10 µM | > 10 µM | 0 | 0 | 0 | 0 | 0 | 100% | 101% | 91% | 96.2% | 95.6% | 100% | 104% | 87.7% | 97.2% | 88.2% | 95.1% | 98.8% | 93.8% | 95.6% | 90.1% | 93.1% | 104% | 91.7% | 98.8% | 87.9% | 94.5% | 98.7% | 91.6% | 113% | 97.3%
5 | CS(=O)(=O)N1CCc2c(-c3cnc(N)nc3)nc(N3CCOCC3)nc21 | 1.67 µM | 1.19 µM | 1.98 µM | 1.22 µM | 1.17 µM | 5.2 | 7 | 4.2 | 6.9 | 7.6 | 104% | 108% | 95.3% | 87.4% | 41.7% | 93.3% | 97.6% | 96.9% | 72% | 33.3% | 99.5% | 97.5% | 99.9% | 92% | 47.1% | 111% | 101% | 95.3% | 72.6% | 33.3% | 94.2% | 96.3% | 98.2% | 70.5% | 29.3%
6 | C[C@H](NC[C@H](O)CP(=O)(O)CC1CCCCC1)c1ccc(Cl)c(Cl)c1 | > 10 µM | > 10 µM | > 10 µM | > 10 µM | > 10 µM | 0 | 0 | 0 | 0 | 0 | 107% | 101% | 104% | 98.7% | 104% | 96.1% | 92.1% | 93.9% | 99.5% | 91.4% | 94.6% | 102% | 94.2% | 101% | 99.8% | 103% | 97.6% | 99.3% | 98.6% | 96.8% | 76.5% | 104% | 95.2% | 102% | 91.7%
7 | C[C@H](c1ccc(F)cc1CCCC(=O)O)N(c1cc(F)ccc1F)S(=O)(=O)c1ccc(Cl)cc1 | > 10 µM | > 10 µM | > 10 µM | > 10 µM | > 10 µM | 0 | 0.1 | 0 | 0 | 0 | 103% | 100% | 102% | 103% | 98.8% | 101% | 97.5% | 112% | 92.6% | 89.5% | 101% | 93.5% | 97.8% | 93.1% | 96.2% | 93.1% | 103% | 94% | 98.8% | 93.6% | 105% | 98.9% | 99.4% | 103% | 103%
8 | Cc1cccc(-c2nn3c(c2-c2ccnc4ccc(C(N)=O)cc24)CCC3)n1 | > 10 µM | > 10 µM | > 10 µM | > 10 µM | > 10 µM | 0 | 0 | 0 | 0 | 0 | 98.9% | 99% | 101% | 99.9% | 113% | 96.9% | 87.8% | 93.1% | 100% | 109% | 98.3% | 99.5% | 95.8% | 96% | 92.6% | 103% | 96.5% | 106% | 99.4% | 106% | 95.4% | 108% | 91.4% | 105% | 113%
9 | N=C(N)NCCC[C@H](NC(=O)c1sccc1NS(=O)(=O)c1cccc2nsnc12)C(=O)O | > 10 µM | > 10 µM | > 10 µM | > 10 µM | > 10 µM | 0 | 0 | 0 | 0 | 0 | 105% | 103% | 101% | 98.4% | 97.1% | 96.9% | 104% | 98.5% | 101% | 105% | 98.3% | 102% | 96.3% | 105% | 98.4% | 105% | 101% | 95.8% | 105% | 103% | 92.7% | 110% | 106% | 117% | 110%
10 | Nc1ncnc2c1C(=O)N(c1ccc([C@H]3CC[C@H](CC(=O)O)CC3)cc1)CCO2 | > 10 µM | > 10 µM | > 10 µM | > 10 µM | > 10 µM | 0 | 0 | 0 | 0 | 0 | 98% | 103% | 93.7% | 107% | 107% | 100% | 90.6% | 95.3% | 98.1% | 104% | 104% | 99.6% | 109% | 102% | 97.5% | 91.2% | 101% | 95.3% | 117% | 92.3% | 107% | 99.7% | 109% | 105% | 110%
11 | CC=CC1=C(C(=O)O)N2C(=O)[C@@H](NC(=O)[C@H](N)c3ccc(O)cc3)[C@H]2SC1 (mixture of isomers) [cefprozil] | > 10 µM | > 10 µM | > 10 µM | > 10 µM | > 10 µM | 0 | 0 | 0 | 0 | 0 | 110% | 90.7% | 99.9% | 103% | 112% | 101% | 94.3% | 82.7% | 120% | 125% | 95.8% | 101% | 96.8% | 99.8% | 98.7% | 112% | 104% | 100% | 97.2% | 106% | 86.7% | 94.2% | 81% | 97.8% | 95.5%
12 | N[C@H]1C(O)O[C@H](CO)[C@@H](O)[C@@H]1O (mixture of isomers) [glucosamine] | > 10 µM | > 10 µM | > 10 µM | > 10 µM | > 10 µM | 0 | 0 | 0 | 0 | 0 | 108% | 103% | 101% | 97.7% | 105% | 88.8% | 91.8% | 95% | 96.6% | 100% | 97.6% | 99.9% | 94.2% | 96.4% | 95.7% | 112% | 106% | 109% | 100% | 112% | 101% | 107% | 97.2% | 101% | 105%
13 | Cc1onc(O)c1C[C@@H](N)C(=O)O (racemic) [AMPA-(RS)] | > 10 µM | > 10 µM | > 10 µM | > 10 µM | > 10 µM | 0 | 0 | 0 | 0 | 0 | 99 ± 3.2% | 98.9 ± 1.1% | 93.8 ± 2.1% | 97.2 ± 1.3% | 104 ± 0.78% | 99.7 ± 0.42% | 89.15 ± 0.071% | 98.2 ± 3.9% | 93.2 ± 3.2% | 93 ± 3.8% | 97.1 ± 1.8% | 95.6 ± 1.3% | 98.2 ± 2.3% | 98.5 ± 3.6% | 102 ± 2.5% | 92.3 ± 9.6% | 102 ± 13% | 96.5 ± 5.2% | 101 ± 5.9% | 108 ± 5.2% | 95.7 ± 6.4% | 98.5 ± 1.5% | 95.8 ± 5% | 99.1 ± 3.5% | 106 ± 12%
14 | O=C(O)CCC/C=C\C[C@@H]1[C@@H](/C=C/[C@@H](O)COc2cccc(Cl)c2)[C@H](O)C[C@@H]1O (racemic) [cloprostenol-(+/-)] | > 10 µM | > 10 µM | > 10 µM | > 10 µM | > 10 µM | 0 | 0 | 0 | 0 | 0 | 99.1% | 103% | 105% | 102% | 102% | 100% | 104% | 96.1% | 97.7% | 92.3% | 103% | 106% | 99.9% | 102% | 97.6% | 98.2% | 106% | 104% | 103% | 104% | 110% | 108% | 106% | 95.5% | 100%
